The record followed here is US20250270206A1, “COMPOSITIONS AND METHODS FOR INHIBITION OF RAS” (TheRas, Inc., priority 2022, published 2025).

SMILES strings stand for the structures. pIC50: −log10 of the molar value.

In assay [1] the target is T1, GTP-loaded KRAS4b (amino acids 1-169) G12C/C118S (Homo sapiens, UniProt P01116, C118S/G12C).
T1 construct: KRAS4b (amino acids 1-169) G12C/C118S protein; made in house
In words: MALDI-TOF MS covalent Cys12 modification, GTP-loaded KRAS G12C. The class given is binding. The following applies: 15 minutes reaction time, 1 μM protein, 1:2.5 protein to compound ratio. An outline of the steps:
(§1)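 1 μM KRAS4b(1-169) G12C/C118S loaded with GTP, GppNHp or GDP in 20 mM HEPES, 150 mM NaCl, 1 mM MgCl2, pH 7.3, treated at a 1:2.5 protein:compound ratio in the dark at room temperature. Linear-mode MALDI-TOF; percent modification = adduct peak height over total protein peak heights, at 15 min.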

The target of assay [2] is T2, GDP-loaded KRAS4b (amino acids 1-169) G12C/C118S (Homo sapiens, UniProt P01116, C118S/G12C).
T2 construct: KRAS4b (amino acids 1-169) G12C/C118S protein; made in house
The assay is described as follows: MALDI-TOF MS covalent Cys12 modification, GDP-loaded KRAS G12C. The following applies: 15 minutes reaction time, 1 μM protein, 1:2.5 protein to compound ratio. The class given is binding. An outline of the steps:
as §1

Assay [3] concerns the target T3, Avi-KRAS G12C (1-169) GppNHp/RAF1 RBD-3×FLAG (52-151) (Homo sapiens, UniProt P01116, G12C).
T3 construct: Avi-KRAS G12C (1-169) GppNHp
The assay is described as follows: KRAS G12C-effector (RAF1 RBD) protein:protein interaction HTRF disruption assay. The conditions noted are these: PPI HTRF. The class given is biochemical. An outline of the steps: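 50 nM Avi-KRAS G12C (1-169) loaded with GppNHp, then 75 nM RAF1 RBD-3×FLAG, then HTRF detection mix, each step 1 h at room temperature. Buffer was 50 mM Tris pH 7.5, 100 mM NaCl, 5 mM MgCl2, 0.1% BSA, 0.01% Tween 20, 10% DMSO. Compounds titrated 30-0.02 μM (3× series). Read at 615 nm emission, reported as % activity vs DMSO (100%).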
(In general: Time-resolved FRET reads energy transfer from a long-lived donor to a nearby acceptor.)

In assay [4] the target is T4, GppNHp-loaded KRAS4b (amino acids 1-169) G12C/C118S (Homo sapiens, UniProt P01116, C118S/G12C).
T4 construct: KRAS4b (amino acids 1-169) G12C/C118S protein; made in house
In words: MALDI-TOF MS covalent Cys12 modification, GppNHp-loaded KRAS G12C. The class given is binding. The following applies: 15 minutes reaction time, 1 μM protein, 1:2.5 protein to compound ratio. An outline of the steps:
as §1

For another assay, the system named is pERK in NCI-H358 cells. In words: Cell-based pERK HTRF assay. The following applies: Homo sapiens, 0.5 h, 30 min incubation. An outline of the steps:
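KRAS G12C NCI-H358 cells in RPMI/10% FBS treated 30 min with compound, 9-point 3-fold series from 75 μM final top, 0.25% DMSO. Lysates read for phospho-ERK by HTRF (d2/Eu cryptate antibodies, 615 nm emission) after 4–24 h room-temperature incubation.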

Consider `C=CC(=O)N1CC[C@@H](N(C)c2nc(OC[C@@]34CCCN3C[C@H](F)C4)nc3c(F)c(-c4ccc(F)c5sc(N)c(C#N)c45)ncc23)[C@@H]1CC` [Compound 44], for which the “GTP-KRAS G12C percent of modification” value in assay [1] is “D (percent of modification <10%)”. The “GDP-KRAS G12C percent of modification” value in assay [2] was “A (percent of modification ≥70%)”. Moreover, the pIC50 (usually the IC50 on a negative log10 scale, so that one unit is a factor of ten) in assay [3] was 5.30 to 6.30; in the assay with pERK in NCI-H358 cells, 6.00 to 7.00. In assay [4], the “GppNHp-KRAS G12C percent of modification” value is on record as “C (10%≤percent of modification <50%)”.

In the case of `C=CC(=O)N1CC[C@@H](N(C)c2nc(OC[C@@]34CCCN3C[C@H](F)C4)nc3c(Cl)c(-c4ccc(F)c5sc(N)c(C#N)c45)ncc23)[C@@H]1CC` [Compound 45], the “GTP-KRAS G12C percent of modification” value in assay [1] is listed as “D (percent of modification <10%)”. Moreover, in assay [2], the “GDP-KRAS G12C percent of modification” value is reported as “A (percent of modification ≥70%)”. Besides, the pIC50 in assay [3] is 5.30 to 6.30; with pERK in NCI-H358 cells, 6.00 to 7.00. For the same compound, the “GppNHp-KRAS G12C percent of modification” value in assay [4] is “C (10%≤percent of modification <50%)”.

With `C=CC(=O)N1CC[C@@H](N(CC)c2nc(OC[C@@]34CCCN3C[C@H](F)C4)nc3c(F)c(-c4ccc(F)c5sc(N)c(C#N)c45)ncc23)[C@H]1CC` [Compound 46], the “GTP-KRAS G12C percent of modification” value in assay [1] is on record as “A (percent of modification ≥70%)”. Besides, the “GDP-KRAS G12C percent of modification” value in assay [2] is “A (percent of modification ≥70%)”. The pIC50 in assay [3] is no less than 6.30; in the assay on pERK in NCI-H358 cells it was 6.00 to 7.00. Besides, the “GppNHp-KRAS G12C percent of modification” value in assay [4] is recorded as “A (percent of modification ≥70%)”.

In the case of `C=CC(=O)N1CC[C@@H](N(C)c2nc(OC[C@@]34CCCN3C[C@H](F)C4)nc3c(Cl)c(-c4ccc(F)c5sc(N)c(C#N)c45)ncc23)[C@H]1CC` [Compound 47], the “GTP-KRAS G12C percent of modification” value in assay [1] is listed as “A (percent of modification ≥70%)”. Besides, the “GDP-KRAS G12C percent of modification” value in assay [2] was “A (percent of modification ≥70%)”. The figures for the pIC50 (in assay [3]; in the assay on pERK in NCI-H358 cells) were no less than 6.30 and no less than 7.00, respectively. Further, the “GppNHp-KRAS G12C percent of modification” value in assay [4] is recorded as “A (percent of modification ≥70%)”.

On to `C=CC(=O)N1CC[C@@H](N(CC)c2nc(OC[C@@]34CCCN3C[C@H](F)C4)nc3c(F)c(-c4ccc(F)c5sc(N)c(C#N)c45)ncc23)[C@@H]1CC` [Compound 48], for which the “GTP-KRAS G12C percent of modification” value in assay [1] is given as “D (percent of modification <10%)”. In addition, in assay [2], the “GDP-KRAS G12C percent of modification” value was “A (percent of modification ≥70%)”. The pIC50 was 5.30 to 6.30 in assay [3] and 6.00 to 7.00 with pERK in NCI-H358 cells. In addition, the “GppNHp-KRAS G12C percent of modification” value in assay [4] is recorded as “D (percent of modification <10%)”.

For the compound `C=CC(=O)N1CC[C@@H](N(CC)c2nc(OC[C@@]34CCCN3C[C@H](F)C4)nc3c(Cl)c(-c4ccc(F)c5sc(N)c(C#N)c45)ncc23)[C@@H]1CC` [Compound 49], in assay [1], the “GTP-KRAS G12C percent of modification” value was “D (percent of modification <10%)”. Also, in assay [2], the “GDP-KRAS G12C percent of modification” value is on record as “A (percent of modification ≥70%)”. Moreover, the pIC50 in assay [3] is 5.30 to 6.30; in the assay on pERK in NCI-H358 cells it was 6.00 to 7.00. In assay [4], the “GppNHp-KRAS G12C percent of modification” value was “D (percent of modification <10%)”.

`C=CC(=O)N1CC[C@@H](N(CC)c2nc(OC[C@@]34CCCN3C[C@H](F)C4)nc3c(F)c(-c4ccc(F)c5sc(N)c(C#N)c45)ncc23)[C@@H]1C` [Compound 50]: the “GTP-KRAS G12C percent of modification” value in assay [1] is listed as “C (10%≤percent of modification <50%)”. The “GDP-KRAS G12C percent of modification” value in assay [2] is “A (percent of modification ≥70%)”. Further, the pIC50 is no less than 6.30 in assay [3] and no less than 7.00 with pERK in NCI-H358 cells. In assay [4], the “GppNHp-KRAS G12C percent of modification” value is “A (percent of modification ≥70%)”.

For the compound `C=CC(=O)N1CC[C@@H](N(CC)c2nc(OC[C@@]34CCCN3C[C@H](F)C4)nc3c(Cl)c(-c4ccc(F)c5sc(N)c(C#N)c45)ncc23)[C@@H]1C` [Compound 51], the “GTP-KRAS G12C percent of modification” value in assay [1] is on record as “C (10%≤percent of modification <50%)”. Further, the “GDP-KRAS G12C percent of modification” value in assay [2] is given as “A (percent of modification ≥70%)”. Further, the pIC50 in assay [3] was no less than 6.30; with pERK in NCI-H358 cells, no less than 7.00. Moreover, the “GppNHp-KRAS G12C percent of modification” value in assay [4] is recorded as “A (percent of modification ≥70%)”.

With `C=CC(=O)N1CC[C@@H](N(C)c2nc(OC[C@@]34CCCN3C[C@H](F)C4)nc3c(F)c(-c4ccc(F)c5sc(N)c(C#N)c45)ncc23)[C@@H]1C` [Compound 52], the “GTP-KRAS G12C percent of modification” value in assay [1] is “B (50% percent of modification <70%)”. Further, in assay [2], the “GDP-KRAS G12C percent of modification” value was “A (percent of modification ≥70%)”. The values for the pIC50 (in assay [3]; in the assay with pERK in NCI-H358 cells) were no less than 6.30 and no less than 7.00, respectively. For the same compound, in assay [4], the “GppNHp-KRAS G12C percent of modification” value is on record as “A (percent of modification ≥70%)”.

For `C=CC(=O)N1CC[C@@H](N(C)c2nc(OC[C@@]34CCCN3C[C@H](F)C4)nc3c(Cl)c(-c4ccc(F)c5sc(N)c(C#N)c45)ncc23)[C@@H]1C` [Compound 53], the “GTP-KRAS G12C percent of modification” value in assay [1] was “B (50% percent of modification <70%)”. Besides, the “GDP-KRAS G12C percent of modification” value in assay [2] is listed as “A (percent of modification ≥70%)”. Also, the pIC50 was no less than 6.30 in assay [3] and no less than 7.00 in the assay on pERK in NCI-H358 cells. Besides, the “GppNHp-KRAS G12C percent of modification” value in assay [4] is reported as “A (percent of modification ≥70%)”.
